Entries after “also recorded” stand apart in the source; their conditions may differ.
Columns and labels:
RAW 264.7 cells = experiment: RANKL-induced osteoclast formation by RAW 264.7 cells, TRAP staining; format: cell-based, mouse; conditions: for osteoclast differentiation (TRAP+ multinucleated osteoclasts): exposure 4 days
Experimental: RAW 264.7 mouse macrophage/monocytes (TIB-71) were purchased from ATCC (Manassas, Va.). Cells were cultured in DMEM/1.5 g/l sodium bicarbonate (JRH Biosciences, Lenexa, Kans.) plus 10% non-heat-inactivated FBS (Invitrogen Corporation Carlsbad, Calif.). When needed, 5-HT was stripped from the FBS by incubating it twice in 0.25% Dextran-coated charcoal (Sigma-Aldrich, St. Louis, Mo.) for 30 minutes at 45° C. Recombinant mouse soluble RANKL (Immunex Corp., Seattle, Wash.) was added at a concentration of 10 ng/ml. Recombinant murine RANKL is an NH2-terminal fusion of a leucine zipper trimerization domain (Fanslow et al., 1994, Semin. Immunol. 6(5):267-278) with residues 134-316 of murine RANKL. […] Cultures were also exposed to the VMAT inhibitor reserpine and the MAO-B inhibitor pargylline (Sigma-Aldrich, St. Louis, Mo.), at the indicated concentrations for 4 days. Mouse bone marrow cells were obtained from long bones of 2-week old C57B1 mice and cultured for 7 days in αMEM/FBS supplemented with 50 ng/ml RANKL and 50 ng/ml human M-CSF (PeproTech Inc., Rocky Hill, N.J.).
(§1) Cells were stained for tartrate-resistant acid phosphatase (TRAP) using a commercially available kit (#387-A, Sigma-Aldrich, St. Louis, Mo.), according to the manufacturer's directions.

[1] = tested on: cathepsin K, MMP-9, TRAP expression; experiment: Northern blot analysis of osteoclast markers in RANKL-stimulated RAW 264.7 cells; format: cell-based, mouse; parameters: reduction in the expression of cathepsin K / reduction in the expression of MMP-9 / reduction in the expression of TRAP: dose or concentration left out as unconfirmed
Experimental: Total RNA was extracted from cells using the TRIAZOL reagent (Invitrogen Corporation, Carlsbad, Calif.), according to the manufacturer's instructions. For RT-PCR, […] of RNA were reversed-transcribed to cDNA using SuperScript II (Invitrogen Corporation, Carlsbad, Calif.) following the manufacturer's instructions. One-tenth of the cDNA was used as a template for the polymerase chain reaction (PCR) […] (35 cycles at 94° C. for 1 minute, 58° C. for 1 minute and 72° C. for 1 minute). For Northern blot analysis, […] of RNA were size fractionated on a 1.2% agarose denaturing gel and transferred onto nylon membranes. The membranes were hybridized to ^32P radiolabeled probes overnight at 42° C. in hybridization solution (50% formamide, 5× SSC, 5× Denhardt's solution, 0.5% SDS and […] salmon sperm DNA), washed twice to remove unbound probe in 1× SSC, 0.2% SDS at 50° C. for 20 minutes, and exposed to X-ray film. The DNA probes were generated by reverse transcriptase polymerase chain reaction (RT-PCR) from OCL RNA, using the following primer-pairs: […]

[2] = tested on: Primary osteoblasts obtained from mouse calvaria; experiment: Bone nodule formation in vitro, Von Kossa stain (Example 5); format: cell-based; conditions: two weeks in presence of Vitamin D, presence vs absence of fluoxetine
Experimental: Primary osteoblasts obtained from mouse calvaria were cultured in vitro for two weeks. […] The cells were then fixed and stained with Von Kossa stain, which stains for calcium phosphate present in bone nodules. Bone nodules formed by osteoblasts in vitro have the same cellular and biochemical composition found in bone. The number of bone nodules were counted.

Swiss Webster mice [3] = experiment: Systemic fluoxetine, trabecular parameters in mice (Example 2); format: in vivo; conditions: fluoxetine 10 mg/kg i.p. once a day for 6 weeks, vs non-treated mice
From the text: After 6 weeks the animals were sacrificed and trabecular bones were examined.
The increased number, increased connectivity, and decreased space between the transversal structures (i.e. trabeculae) of “spongelike bone” is indicative of increased density and strength of trabecular bone.

[4] = tested on: normal mouse bone marrow cells (BMC); experiment: Osteoclast formation from normal mouse bone marrow cells with M-CSF and RANKL; format: cell-based; conditions: TRAP staining
Experimental: Mouse bone marrow cells were obtained from long bones of 2-week old C57B1 mice and cultured for 7 days in αMEM/FBS supplemented with 50 ng/ml RANKL and 50 ng/ml human M-CSF (PeproTech Inc., Rocky Hill, N.J.).
as §1

mice = experiment: New bone formation in calvarium after LPS or PTH plus fluoxetine, Van Giesson stain (Example 3); format: in vivo
Experimental: LPS (50 μl at 5 μg/μl) or PTH was injected subcutaneously above the calvarial bone once on day one to stimulate the osteoclasts.
After five days, the mice were sacrificed. The calvarium was fixed, decalcified, and analyzed histologically for new bone formation. Van Giesson stain was used to distinguish old bone from new bone (new bone stains blue). […] The x-axis represents arbitrary units of new bone formation, where 0 represents no new bone and 3 represents high amount of new bone.

[5] = cited from earlier work
Swiss Webster mice [6] = experiment: Femur bone mass by microcomputer tomography after fluoxetine (Example 6); format: in vivo; parameters: Trabecular thickness: unit not given here; conditions: for Trabecular number / Trabecular spacing / Trabecular thickness / connectedness of trabeculae: hydrochloride
[7] = added serotonin in 5-HT-depleted FBS, Days 3 and 4 after RANKL induction
[8] = RANKL-stimulated RAW 264.7 cells
[9] = femur, fluoxetine 10 mg/kg i.p. daily for six weeks, n = 6
[10] = femur, fluoxetine 10 mg/kg i.p. daily for six weeks, n = 6, listed as Fluoxetine
[11] = fluoxetine-treated vs untreated mice

SMILES: NCCc1c[nH]c2ccc(O)cc12 [serotonin, 5-hydroxytryptamine]
- number of osteoclasts (RAW 264.7 cells; added serotonin at 30 or 300 ng/ml, 5-HT depleted FBS, RANKL-stimulated): significantly increased
- osteoclast formation (RAW 264.7 cells; addition of serotonin 3-300 ng/ml, cultures containing FBS (5-HT replete)): had no effect
- MMP-9 expression [1, 7]: up-regulated
- cathepsin K expression [1, 7]: up-regulated

SMILES: C#CCN(C)Cc1ccccc1 [pargylline]
- osteoclast differentiation (TRAP+ multinucleated osteoclasts) (RAW 264.7 cells; presence of RANKL): had no effect

SMILES: CNCCC(Oc1ccc(C(F)(F)F)cc1)c1ccccc1.Cl (racemic) [fluoxetine, (+/−)—N-methyl-3-phenyl-3-[(α,α,α-trifluoro-p-tolyl)oxy]propylamine hydrochloride]
- formation of TRAP positive cells (RAW 264.7 cells; RANKL-induced RAW 264.7 cells, fluoxetine concentration series): inhibited the formation of TRAP positive cells in a dose-dependent manner
- osteoclast differentiation (TRAP positive multinucleated cells) (RAW 264.7 cells; RANKL-induced, 5-HT replete (FBS) and depleted (FBS−) serum): suppressed osteoclast differentiation
- number of bone nodules [2]: increased
- reduction in the expression of MMP-9 [1, 8]: 80%
- reduction in the expression of TRAP [1, 8]: ~20%
- reduction in the expression of cathepsin K [1, 8]: ~70%
- Trabecular spacing (Swiss Webster mice [3]): decreased
- number of trabeculae per unit length of bone (Swiss Webster mice [3]): increased
- thickness of trabeculae (Swiss Webster mice [3]): no significant difference
- bone mineral content (BMC) (Swiss Webster mice [3]; hydrochloride): increase
- connectedness of trabeculae (Swiss Webster mice [3]; hydrochloride): more connected; also recorded: increase
- BMC-derived osteoclast formation [4]: significantly inhibited
- new bone formation (mice; LPS injected above calvarial bone on day one, fluoxetine 10 mg/kg i.p. once a day for five days, vs LPS alone, hydrochloride): increased new bone formation; also recorded: greater increase in new bone
- new bone formation (mice; co-administration of fluoxetine and PTH, vs PTH alone): greater increase in new bone
- half-life ([5]; stated with the dosage range for treating depression): 7 to 9 days
- ½ life ([5]; stated with the mouse i.p. regimen of Example 2): 1 to 2 days
- Bone surface (Swiss Webster mice [6]; [9]): 16.9 ± 7.3 mm^2
- Trabecular number (Swiss Webster mice [6]; [9]): significant increases
- Trabecular spacing (Swiss Webster mice [6]; [9]): reduction
- Trabecular thickness (Swiss Webster mice [6]; [9]): stable
- connectedness of trabeculae (Swiss Webster mice [6]; [9]): better connected
- Bone volume/total volume (Swiss Webster mice [6]; femur, fluoxetine 10 mg/kg i.p. daily for six weeks, n = 6, in % (unit assumed)): 16.7 ± 7.3
- Trabecular number (Swiss Webster mice [6]; [10]): 3.26 ± 0.53
- Trabecular spacing (Swiss Webster mice [6]; [10]): 0.32 ± 0.05
- Trabecular thickness (Swiss Webster mice [6]; [10]): 0.09 ± 0.01
- connectedness of trabeculae (Swiss Webster mice [6]; [10]): 114.2 ± 53.0
- increase in bone mineral content (Swiss Webster mice [6]; [11]): 50%
- increase in bone surface (Swiss Webster mice [6]; [11]): 50%
- increase in bone volume/total volume (Swiss Webster mice [6]; [11]): 50%

SMILES: COC(=O)[C@H]1[C@H]2C[C@@H]3c4[nH]c5cc(OC)ccc5c4CCN3C[C@H]2C[C@@H](OC(=O)c2cc(OC)c(OC)c(OC)c2)[C@@H]1OC [reserpine]
- TRAP expression by mono- and bi-nucleated cells (RAW 264.7 cells; absence of RANKL): induced TRAP expression
- formation of large multinucleated osteoclasts (RAW 264.7 cells; absence of RANKL): not formed
- osteoclast differentiation (TRAP+ multinucleated osteoclasts) (RAW 264.7 cells; presence of RANKL): promoted osteoclast differentiation
- cell size and multinucleation (RAW 264.7 cells; presence of RANKL, reserpine treatment): stimulated the formation of much larger cells with greater multinucleation
